One experiment deals with H-2 Db (Mus musculus, UniProt P01899). Kind of experiment: biochemical. In kind it is binding, murine.
A further experiment concerns the target HLA-A*0101 (Homo sapiens, UniProt P04439, A114D/A174V/A182V/D101N/D185E/E176A/E190D/L180R/Q94H/R68K/S129P/T187R/V100A/V91M/W191G). The experiment is described as follows: biochemical. To be noted: Binding affinity to A*0101 (expressed as an IC50). In kind it is binding.
Another experiment addresses HLA-A*2902 (Homo sapiens, UniProt P04439, A270S/D101N/D185E/E176V/E277Q/E87Q/F33T/G231S/H175R/I121M/I218V/I322F/K168Q/L300P/L318F/M331R/P208A/P217A/Q86L/T323A/T345S/V100A/V358M). The experiment is described as follows: MHC molecular binding / Capture assay, IC50: A*2902.
In the next experiment the target is HLA-A*3002 (Homo sapiens, UniProt P04439, D101N/D140H/D185E/E176R/F33S/G80R/H175R/K168Q/Q94H/R138E/R41S/V100E). Kind of experiment: biochemical. In kind it is binding.
In a further experiment the target is HLA-A*2301 (Homo sapiens, UniProt P04439, D101N/D140Y/D185E/E176V/E190D/F33S/G103R/G107R/H175R/I119L/I121M/I306V/K168Q/K335N/L105A/L300P/N151K/N90K/P307H/Q86E/Q94H/R106L/R138H/R89G/T104I/T345S/V100E/W191G/Y123F). Kind of experiment: biochemical. Type of experiment: binding.
For a further experiment, the target named is HLA-A*2402 (Homo sapiens, UniProt P04439, D101N/D140Y/D185E/E176V/E190D/F33S/G103R/G107R/I119L/I121M/I306V/K335N/L105A/L180Q/L300P/N151K/N90K/Q86E/Q94H/R106L/R138H/R89G/T104I/T345S/V100E/W191G/Y123F). The experiment is described as follows: MHC molecular binding / Capture assay, IC50: A*2402.
Where [1] appears, read: Binding affinity to A*2902 (expressed as an IC50).
Setting [2] is: Binding affinity to A*3002 (expressed as an IC50).

Where “and” joins values, the source holds several entries; their conditions need not be identical. Equal values may be shown once. Read-outs that look alike come from different tables or passages of the source. No end group written: not given here.

Chain of H-2 Db (P61769 21-119): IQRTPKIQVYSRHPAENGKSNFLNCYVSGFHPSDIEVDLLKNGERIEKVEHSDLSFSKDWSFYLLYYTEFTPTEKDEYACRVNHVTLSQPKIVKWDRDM
Chain of H-2 Db (P01899 25-362): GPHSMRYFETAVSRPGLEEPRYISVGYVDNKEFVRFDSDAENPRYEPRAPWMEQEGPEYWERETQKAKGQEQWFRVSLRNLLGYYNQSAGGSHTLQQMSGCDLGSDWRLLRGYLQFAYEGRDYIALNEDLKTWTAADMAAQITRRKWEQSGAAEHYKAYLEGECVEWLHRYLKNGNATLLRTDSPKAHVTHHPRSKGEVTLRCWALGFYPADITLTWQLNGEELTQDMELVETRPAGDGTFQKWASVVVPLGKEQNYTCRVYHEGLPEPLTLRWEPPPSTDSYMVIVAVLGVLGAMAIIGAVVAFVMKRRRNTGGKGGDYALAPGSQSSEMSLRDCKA

For the molecule TALANTIEV, the IC50 on H-2 Db (read-out: Db) turned out to be 16 nM.
As to CSANNSHHYM, the IC50 against H-2 Db (Db) was determined as 42 nM.
Turning to `CC[C@H](C)[C@H](NC(=O)[C@H](CCCCN)NC(=O)[C@H](CCC(=O)O)NC(=O)[C@H](CC(C)C)NC(=O)[C@@H](N)[C@@H](C)O)C(=O)N[C@H](C(=O)N[C@@H](CC(N)=O)C(=O)N[C@H](C(=O)N[C@@H](CCC(=O)O)C(=O)N[C@@H](CC(C)C)C(=O)N[C@@H](Cc1ccc(O)cc1)C(=O)O)[C@@H](C)O)[C@@H](C)O`, the IC50 at HLA-A*0101 is 17 nM; on HLA-A*2902 (setting [1]), 8400 nM; on HLA-A*3002 (setting [2]), 3900 nM.
Consider `CC[C@H](C)[C@H](N)C(=O)N[C@H](C(=O)N[C@@H](Cc1ccc(O)cc1)C(=O)N[C@@H](CCCCN)C(=O)N[C@@H](CC(N)=O)C(=O)N[C@@H](CO)C(=O)N[C@H](C(=O)N[C@@H](Cc1c[nH]c2ccccc12)C(=O)N[C@H](C(=O)O)C(C)C)[C@@H](C)O)[C@@H](C)O`, for which the IC50 on H-2 Db (Db) is 409 nM and 276 nM.
With `CC[C@H](C)[C@H](NC(=O)[C@H](Cc1c[nH]cn1)NC(=O)[C@H](Cc1ccccc1)NC(=O)[C@@H](N)Cc1c[nH]c2ccccc12)C(=O)N[C@@H](CO)C(=O)N[C@@H](CS)C(=O)N[C@@H](CC(C)C)C(=O)N[C@H](C(=O)N[C@@H](Cc1ccccc1)C(=O)O)[C@@H](C)O`, the IC50 on HLA-A*0101 came out at 85300 nM; on HLA-A*2902 it was 95 nM; against HLA-A*3002 it was 75100 nM; on HLA-A*2301 it was 11 nM; at HLA-A*2402 it was 204 nM.
Turning to YTKVSEFRWY, the IC50 at HLA-A*0101 is 276 nM and 204 nM; on HLA-A*2902, 3310 nM; against HLA-A*3002, 420 nM.
Regarding ASNENMDAM, the IC50 on H-2 Db (Db) was determined as 28 nM.
The same measure, in the same setting: with `CSCC[C@H](NC(=O)[C@H](C)NC(=O)[C@H](C)NC(=O)[C@H](C)NC(=O)[C@H](C)NC(=O)[C@H](Cc1ccc(O)cc1)NC(=O)[C@H](C)NC(=O)[C@H](C)NC(=O)[C@H](C)NC(=O)[C@H](C)N)C(=O)O` the figure was > 44000 nM.
For the molecule `CC(C)C[C@H](NC(=O)[C@H](CC(=O)O)NC(=O)[C@H](CCC(N)=O)NC(=O)[C@@H](N)[C@@H](C)O)C(=O)N[C@H](C(=O)N[C@@H](CCC(N)=O)C(=O)N[C@@H](CCC(=O)O)C(=O)N[C@@H](CCCCN)C(=O)N[C@@H](Cc1ccc(O)cc1)C(=O)O)C(C)C`, the IC50 at HLA-A*0101 was 57 nM; at HLA-A*2902, 33300 nM; on HLA-A*3002 it was 3800 nM.
As to FTDLRIVY, the IC50 on HLA-A*0101 turned out to be 26 nM; on HLA-A*2902 (setting [1]), 813 nM; at HLA-A*3002 (setting [2]) it was 8060 nM.
On to TGIGNQNII, for which the IC50 on H-2 Db (read-out: Db) was 13 nM.
Take `CC(C)[C@H](NC(=O)[C@@H](NC(=O)[C@H](CC(=O)O)NC(=O)[C@H](CO)NC(=O)[C@H](CC(N)=O)NC(=O)[C@@H](NC(=O)CNC(=O)[C@H](CS)NC(=O)[C@@H](N)Cc1ccccc1)C(C)C)[C@@H](C)O)C(=O)O`: the IC50 against H-2 Db (Db) is 206 nM and 166 nM.
On to `CC[C@H](C)[C@H](NC(=O)[C@H](CC(=O)O)NC(=O)[C@H](CCC(N)=O)NC(=O)[C@@H](N)CCCNC(=N)N)C(=O)N[C@@H](CC(C)C)C(=O)N[C@@H](CC(=O)O)C(=O)N[C@@H](CC(C)C)C(=O)N[C@@H](Cc1c[nH]c2ccccc12)C(=O)N[C@H](C(=O)N[C@@H](Cc1ccc(O)cc1)C(=O)O)C(C)C`, for which the IC50 on HLA-A*0101 came out at 9000 nM; at HLA-A*2902 (setting [1]) it was 13900 nM; at HLA-A*3002 (setting [2]), 95 nM.
As for TGICNQNII, at H-2 Db (read-out: Db), the IC50 was 21 nM.
For the molecule QTEQATSNY, the IC50 stood at 14 nM at HLA-A*0101, 119000 nM on HLA-A*2902 and 3250 nM against HLA-A*3002.
On to FQPQNGQFI, for which the IC50 against H-2 Db (Db) was 6.9 nM and 4.9 nM and 17 nM.
As to ETRHYNYSLY, the IC50 on HLA-A*0101 was determined as 445 nM; on HLA-A*2902 it was 5460 nM; against HLA-A*3002, 29 nM.
The like results for LTDLRLSCVY were, in that order, 45 nM, 1780 nM and 613 nM.
Take `C[C@H](NC(=O)[C@H](CCC(N)=O)NC(=O)[C@@H](N)CCCNC(=N)N)C(=O)N[C@@H](CCCCN)C(=O)N[C@@H](CCC(N)=O)C(=O)N[C@@H](Cc1c[nH]cn1)C(=O)N[C@H](C(=O)N[C@@H](CS)C(=O)N[C@@H](Cc1ccc(O)cc1)C(=O)O)[C@@H](C)O`: the IC50 on HLA-A*0101 is > 135000 nM; on HLA-A*2902 (setting [1]), 155000 nM; on HLA-A*3002 (setting [2]), 108 nM.
For VSSIFISFY, in that order: 144 nM, 1800 nM and 55 nM.
The like results for `CC(C)C[C@H](NC(=O)[C@@H](NC(=O)[C@@H](N)CCCCN)[C@@H](C)O)C(=O)N[C@@H](Cc1ccc(O)cc1)C(=O)N[C@@H](CCC(N)=O)C(=O)N[C@@H](CO)C(=O)N[C@@H](CC(N)=O)C(=O)N1CCC[C@H]1C(=O)N[C@@H](Cc1ccc(O)cc1)C(=O)O` were, in that order, 6910 nM, 1700 nM and 35 nM.
Regarding RTDILDLWVY, the figures for the IC50 on HLA-A*0101, at HLA-A*2902 and against HLA-A*3002 were 85 nM, 13400 nM and 360 nM, respectively.
Regarding KTRYYDYSVY, the IC50 on HLA-A*0101 is 2960 nM; at HLA-A*2902, 87800 nM; at HLA-A*3002, 0.71 nM.
As for LTDIEITCVY, the IC50 was 12 nM and 33 nM at HLA-A*0101; 540 nM at HLA-A*2902; 80 nM against HLA-A*3002.
Consider `CC(C)C[C@H](NC(=O)CNC(=O)[C@@H](NC(=O)[C@H](CC(N)=O)NC(=O)[C@@H](NC(=O)[C@H](CC(C)C)NC(=O)[C@H](CCCCN)NC(=O)[C@H](CCC(=O)O)NC(=O)[C@H](CC(C)C)NC(=O)[C@@H](N)[C@@H](C)O)[C@@H](C)O)[C@@H](C)O)C(=O)N[C@@H](Cc1ccc(O)cc1)C(=O)O`, for which the IC50 was 77 nM and 23 nM on HLA-A*0101; 991 nM at HLA-A*2902; 5500 nM on HLA-A*2902 (setting [1]); 92 nM against HLA-A*3002.
Turning to RTAKQHTCY, the figures for the IC50 at HLA-A*0101, at HLA-A*2902 and at HLA-A*3002 were 5650 nM, 130000 nM and 346 nM, respectively.
Turning to QNADKNFLY, the IC50 was 3810 nM at HLA-A*0101, 24 nM on HLA-A*2902 (setting [1]) and 663 nM on HLA-A*3002 (setting [2]).
For TLEKGPGPGLY, in that order: 13 nM, 2040 nM and 40 nM.
Turning to TLGPGPGTGLY, the IC50 at HLA-A*0101 was 350 nM; on HLA-A*2902 (setting [1]) it was 1320 nM; on HLA-A*3002 (setting [2]), 7.4 nM.
Turning to ETSSALEIPY, the IC50 is 19 nM on HLA-A*0101, 12000 nM on HLA-A*2902 and 7140 nM against HLA-A*3002.
As for ITDIILECVY, the IC50 on HLA-A*0101 turned out to be 1.8 nM; on HLA-A*2902, 7660 nM; against HLA-A*3002, 505 nM.
Turning to `CC[C@H](C)[C@H](NC(=O)[C@@H](NC(=O)[C@@H]1CCCN1C(=O)[C@H](Cc1c[nH]cn1)NC(=O)[C@H](CO)NC(=O)[C@H](Cc1ccc(O)cc1)NC(=O)[C@@H](N)CC(C)C)[C@@H](C)CC)C(=O)N[C@@H](CC(C)C)C(=O)NCC(=O)N[C@@H](Cc1ccccc1)C(=O)O`, the IC50 is 3170 nM at HLA-A*0101, 5.4 nM against HLA-A*2301 and 2.6 nM at HLA-A*2402.
As for QTEQATSNYY, the IC50 at HLA-A*0101 is 11 nM; at HLA-A*2902 it was 9580 nM; against HLA-A*3002 it was 500 nM.
The like results for YTDGPGIRY were, in that order, 11 nM, 562 nM and 7910 nM.
The like results for YSDVRKYRYY were, in that order, 19 nM, 849 nM and 794 nM.
In the case of STVKHHMY, the IC50 at HLA-A*0101 was determined as 8130 nM; at HLA-A*2902 it was 1760 nM; against HLA-A*3002, 68 nM.
For EYDHYCYSLY, the figures for the IC50 on HLA-A*0101, on HLA-A*2902 and against HLA-A*3002 were 110000 nM, 799 nM and 77 nM, respectively.
For KTDQRSEVY, the IC50 on HLA-A*0101 is 84 nM and 41 nM; at HLA-A*2902 it was 200000 nM; on HLA-A*3002, 1170 nM.
For FQAAESNERY, the IC50 at HLA-A*0101 was determined as 8960 nM; on HLA-A*2902 (setting [1]), 1780 nM; at HLA-A*3002 (setting [2]), 372 nM.
As to ELDSALEIPY, the values for the IC50 at HLA-A*0101, at HLA-A*2902 and against HLA-A*3002 were 38 nM, 82200 nM and 38300 nM, respectively.
Turning to KYDYYDYSVY, the IC50 was 186000 nM on HLA-A*0101, 5750 nM at HLA-A*2902 and 11 nM against HLA-A*3002.
As for YSDIRELRHY, the results for the IC50 at HLA-A*0101, on HLA-A*2902 and against HLA-A*3002 were 14 nM, 1140 nM and 740 nM, respectively.
TLEKLGPGPGY: the IC50 on HLA-A*0101 is 269 nM; on HLA-A*2902 (setting [1]), 4470 nM; on HLA-A*3002 (setting [2]), 1960 nM.
As for `CC[C@H](C)[C@H](N)C(=O)N[C@@H](CO)C(=O)N[C@@H](CCC(=O)O)C(=O)N[C@@H](Cc1ccc(O)cc1)C(=O)N[C@@H](CCCNC(=N)N)C(=O)N[C@@H](Cc1c[nH]cn1)C(=O)N[C@@H](Cc1ccc(O)cc1)C(=O)N[C@@H](CC(N)=O)C(=O)N[C@@H](Cc1ccc(O)cc1)C(=O)O`, the IC50 is 25 nM at HLA-A*0101, 32 nM at HLA-A*3002 (setting [2]) and > 23600 nM against HLA-A*2301.

Values taken from patent publication US20060079453A1, “Hla binding peptides and their uses” (priority 2002, published 2006).
